{"source": "patent US5342925A", "about": "“Radioactive compositions for soft tissue tumors” (priority 1991, dated 1994)", "key": {"Ehrlich tumors": {"tested_on": "Ehrlich tumors", "settings": "experimental animals bearing Ehrlich tumors; cited from earlier work"}, "[1]": {"experiment": "Whole body retention (whole body counts after I.V. injection) in miniature pigs with melanotic lesions", "type": "in vivo", "settings": "for % Whole Body Retention (24 hrs.): I.V., 1-2 mCi 153Sm, % = percentage of injected dose", "description": "(§1) Images (right lateral, left lateral and dorsal) were made at 4, 24, 48 and 72 hours."}, "[2]": {"experiment": "Bone and liver uptake scored from scintigraphic images of miniature pigs with melanotic lesions", "type": "in vivo", "description": "as §1\n(§2) 1--Slight uptake (negligible)\n(§3) 2--Moderate uptake (intermediate )\n(§4) 3--Definite uptake (high)\n(§5) The average of the 3 investigators independent scores were used in the following table."}, "[3]": {"tested_on": "naturally occurring melanotic lesions", "experiment": "Tumor uptake scored from images of miniature pigs with naturally occurring melanotic lesions", "type": "in vivo", "settings": "24 hour images, average score of 3 investigators, scale 0-3", "description": "as §1, §2, §3, §4, §5"}, "[4]": {"settings": "in vivo; cited from earlier work"}, "[5]": {"settings": "24 hour images, average score of 3 investigators, scale 0-3"}, "[6]": {"settings": "Comparative Example A, in words"}}, "note": "Several values for one entry are separate records, joined by “and”; a condition that tells them apart may be missing. Equal values may be shown once.", "data": [{"compound": "O=C(O)CN(CCO)CCN(CC(=O)O)CC(=O)O", "note": "[hydroxyethylethylenediaminetriacetic acid]", "values": [{"measurement": "tumor imaging", "setting": "Ehrlich tumors", "result": "less effective"}]}, {"compound": "CN(CC(=O)O)CC(=O)O", "note": "[methyliminodiacetic acid (MIDA), methyliminodiacetic acid]", "values": [{"measurement": "tumor imaging", "setting": "Ehrlich tumors", "result": "less effective"}]}, {"compound": "CC(=O)Nc1ccc(O)c(CN(CC(=O)O)CC(=O)O)c1.[153Sm+3]", "note": "[Example 2]", "values": [{"measurement": "% Whole Body Retention (24 hrs.)", "setting": "[1]", "result": "60.7% and 46.6%"}, {"measurement": "Bone Uptake", "setting": "[2]; [5]", "result": "1.33 and 2.33"}, {"measurement": "Liver Uptake", "setting": "[2]; [5]", "result": "2.00 and 1.00"}, {"measurement": "Tumor Uptake (Dorsal neck)", "setting": "[3]", "result": 3.00}, {"measurement": "Tumor Uptake (Left stifle)", "setting": "[3]", "result": 2.00}, {"measurement": "Tumor Uptake (Right head)", "setting": "[3]", "result": 0.00}, {"measurement": "Tumor Uptake (Right thorax)", "setting": "[3]", "result": 0.00}, {"measurement": "Tumor Uptake (draining node)", "setting": "[3]; draining node", "result": 0.00}]}, {"compound": "CC(=O)Nc1cc(CN(CC(=O)O)CC(=O)O)c(O)c(CN(CC(=O)O)CC(=O)O)c1.[153Sm+3]", "note": "[Example 1]", "values": [{"measurement": "% Whole Body Retention (24 hrs.)", "setting": "[1]", "result": "29.5% and 40.1%"}, {"measurement": "Bone Uptake", "setting": "[2]; [5]", "result": 3.00}, {"measurement": "Liver Uptake", "setting": "[2]; [5]", "result": 0.67}, {"measurement": "Tumor Uptake (Dorsal neck)", "setting": "[3]", "result": 3.00}, {"measurement": "Tumor Uptake (Left stifle)", "setting": "[3]", "result": 2.00}, {"measurement": "Tumor Uptake (Right head)", "setting": "[3]", "result": 0.67}, {"measurement": "Tumor Uptake (Right thorax)", "setting": "[3]", "result": 2.00}]}, {"compound": "O=C(O)CN(CC(=O)O)CC(=O)O", "note": "[nitrilotriacetic acid (NTA), nitrilotriacetic acid]", "values": [{"measurement": "tumor imaging", "setting": "Ehrlich tumors", "result": "less effective"}]}, {"compound": "^99m Tc-ethylenediaminediacetic acid", "values": [{"measurement": "tumor imaging", "setting": "Ehrlich tumors", "result": "could be used to image tumors"}]}, {"compound": "O=C(O)CNCC(=O)O", "note": "[iminodiacetic acid (IDA), iminodiacetic acid]", "values": [{"measurement": "tumor imaging", "setting": "Ehrlich tumors", "result": "less effective"}]}, {"compound": "O=C([O-])CC(O)(CC(=O)[O-])C(=O)[O-].[67Ga+3]", "note": "[^67 Ga-citrate, reference compound]", "values": [{"measurement": "clearance from extracellular fluid", "setting": "[1]; [6]", "result": "never cleared the extracellular fluid"}, {"measurement": "Liver Uptake", "setting": "[2]; [6]", "result": "unacceptably large liver uptake"}]}, {"compound": "O=C([O-])CN(CCN(CC(=O)[O-])CC(=O)[O-])CCN(CC(=O)[O-])CC(=O)[O-].[99Tc+4]", "note": "[^99m Tc-DTPA]", "values": [{"measurement": "elimination route", "setting": "[4]", "result": "eliminated from the body by the kidneys into the urine"}, {"measurement": "tissue localization", "setting": "[4]", "result": "does not result in the radionuclide localizing in any tissue"}]}, {"compound": "CC(=O)Nc1cc(CN(CC(=O)O)CC(=O)O)c(O)c(CN(CC(=O)O)CC(=O)O)c1.[153Sm+3]", "note": "[Example 3]", "values": [{"measurement": "% Whole Body Retention (24 hrs.)", "setting": "[1]", "result": "42.9% and 37.1%"}, {"measurement": "Tumor Uptake (Left sacrum)", "setting": "[3]; Left sacrum", "result": 3.00}, {"measurement": "Tumor Uptake (Right nasal)", "setting": "[3]; Right nasal", "result": 2.00}, {"measurement": "Tumor Uptake (Right stifle)", "setting": "[3]; Right stifle", "result": 0.00}]}, {"compound": "O=C(O)CN(CCN(CC(=O)O)CC(=O)O)CC(=O)O", "note": "[ethylenediaminetetraacetic acid (EDTA), ethylenediaminetetraacetic acid]", "values": [{"measurement": "tumor imaging", "setting": "Ehrlich tumors", "result": "less effective"}]}, {"compound": "CC(=O)Nc1cc(CN(CC(=O)O)CC(=O)O)c(O)c(CN(CC(=O)O)CC(=O)O)c1.[153Sm+3]", "note": "[Example 4]", "values": [{"measurement": "% Whole Body Retention (24 hrs.)", "setting": "[1]", "result": "55.2% and 48.2%"}, {"measurement": "Bone Uptake", "setting": "[2]; [5]", "result": 1.67}, {"measurement": "Liver Uptake", "setting": "[2]; [5]", "result": "3.00 and 2.00"}, {"measurement": "Tumor Uptake (Left carpus)", "setting": "[3]; Left carpus", "result": 0.00}, {"measurement": "Tumor Uptake (Left stifle)", "setting": "[3]", "result": 0.00}, {"measurement": "Tumor Uptake (Right ear)", "setting": "[3]; Right ear", "result": 2.00}]}]}
